Patent publication US11865126B2, “Method for treating anxiety disorders, headache disorders, and eating disorders with psilocybin” (priority 2019, dated 2024)

System: healthy subjects
Experiment: Phase 1 healthy volunteer study, single oral dose: treatment-emergent adverse events
Assay type: in vivo, human
Method: A Phase 1 randomized, double-blind, placebo-controlled study to evaluate the effect of psilocybin on cognitive and emotional processing as compared to placebo in healthy volunteers was conducted. The study investigated the short-term (Day 7) and long-term (Day 28) effects of moderate (10 mg) and high doses (25 mg) of psilocybin on key domains of cognition, such as episodic memory, attention, working and spatial memory, social cognition and elements of executive function, including cognitive flexibility.
90 healthy subjects were studied. Approximately 50% of the subjects were psilocybin-naïve. For subjects with prior psilocybin experience, the last exposure was at least 1 year prior to the signing of the Informed Consent Form (ICF). Approximately 50% of the subjects were female. Subjects were stratified by sex and age (18-35 years old; >35 years old).
Each subject was assigned 1 treatment bottle containing 5 capsules packaged in a double-blind fashion, depending on the randomized treatment arm, the bottle contained one of the following: • a. Psilocybin 10 mg: 2×5-mg oral psilocybin capsules plus 3× placebo capsules • b. Psilocybin 25 mg: 5×5-mg oral psilocybin capsules • c. Placebo: 5× placebo capsules
Each 5-mg oral psilocybin capsule comprised 5 mg crystalline psilocybin in the form of Polymorph A, 12.5 mg of SMCC 50, 79.5 mg of SMCC 90, 1 mg sodium starch glycolate, 1 mg colloidal silicon dioxide, and 1 mg sodium stearyl fumarate
Adverse events: Throughout the course of the study, all AEs were monitored and recorded. Each AE was classified according to the following criteria: • i. […] Moderate: The AE produces some impairment of functioning, but is not hazardous to the subject's health. • iii. Severe: The AE produces significant impairment of functioning or incapacitation and is a definite hazard to the subject's health.
Selected Adverse Events of included: • (a) Euphoric mood • (b) Dissociative disorder • (c) Hallucination • (d) Psychotic disorder • (e) Cognitive disorder • (f) Disturbance in attention • (g) Altered mood • (h) Impairment of psychomotor skills • (i) Inappropriate affect • (j) Overdose • (k) Intentional product misuse • (l) Illusion
For example, drug-induced hepatitis that resolved without evidence of hepatic failure would not be considered life threatening even though drug-induced hepatitis can be fatal. • (c) Inpatient hospitalization or prolongation of existing hospitalization. • (d) Persistent or significant disability/incapacity. • (e) Congenital anomaly/birth defect in the offspring of a subject who received psilocybin. • (f) Other: Important medical events that may not result in death, be life-threatening, or require hospitalization, may be considered an SAE when, based upon appropriate medical judgment, they may jeopardize the subject and may require medical or surgical intervention to prevent one of the outcomes listed in this definition. […] Visits:
Visit 3 (V3): Drug Administration (Day 0): The subject was asked to eat a light breakfast at least two hours prior to coming to the clinic for study drug administration. On Day 0 (V3), the subject underwent the SSTS, had vital signs obtained, medications reviewed, AEs recorded and eligibility reviewed prior to being randomized to study drug. The study drug was administered to up to six subjects simultaneously in individual beds separated by a curtain. The subject was invited to put on eyeshades and headphones, lie down and listen to calming music for the rest of the session (six hours). The subject was supported 1:1 with a chaperone and supervised by the study psychiatrist and lead therapist.
Recording of adverse events and prior/concomitant medication was performed at each visit.
During administration of psilocybin, each subject received one on one support from a trained assisting therapist and each dosing session was supervised by a study psychiatrist and a lead therapist. […]

CN(C)CCc1c[nH]c2cccc(OP(=O)(O)O)c12 [psilocybin]
Infections and infestations, worst severity Severe: N (%) (10 mg): 0 | Infections and infestations: Events (10 mg): 4 | Investigations, worst severity Mild: Events (10 mg): 2 | Investigations, worst severity Moderate: Events (10 mg): 0 | Investigations, worst severity Moderate: N (%) (10 mg): 0 | Investigations, worst severity Severe: Events (10 mg): 0 | Investigations, worst severity Severe: N (%) (10 mg): 0 | Investigations: Events (10 mg): 2 | Mental fatigue: Events (10 mg): 0 | Mental fatigue: N (%) (10 mg): 0 | Mood altered, worst severity Mild: Events (10 mg): 2 | Mood altered, worst severity Moderate: Events (10 mg): 8 | Mood altered, worst severity Severe: Events (10 mg): 9 | Mood altered, worst severity Severe: N (%) (10 mg): 6 (20.0) | Mood altered: Events (10 mg): 23 | Musculoskeletal and connective tissue disorders, worst severity Mild: Events (10 mg): 0 | Musculoskeletal and connective tissue disorders, worst severity Mild: N (%) (10 mg): 0 | Musculoskeletal and connective tissue disorders, worst severity Moderate: Events (10 mg): 1 | Musculoskeletal and connective tissue disorders, worst severity Severe: Events (10 mg): 0 | Musculoskeletal and connective tissue disorders, worst severity Severe: N (%) (10 mg): 0 | Musculoskeletal and connective tissue disorders: Events (10 mg): 1 | Nausea: Events (10 mg): 1 | Nervous system disorders, worst severity Mild: Events (10 mg): 23 | Nervous system disorders, worst severity Moderate: Events (10 mg): 8 | Nervous system disorders, worst severity Moderate: N (%) (10 mg): 6 (20.0) | Nervous system disorders, worst severity Severe: Events (10 mg): 0 | Nervous system disorders, worst severity Severe: N (%) (10 mg): 0 | Nervous system disorders: Events (10 mg): 35 | Paraesthesia, worst severity Mild: Events (10 mg): 4 | Paraesthesia, worst severity Moderate: Events (10 mg): 0 | Paraesthesia, worst severity Moderate: N (%) (10 mg): 0 | Paraesthesia, worst severity Severe: Events (10 mg): 0 | Paraesthesia, worst severity Severe: N (%) (10 mg): 0 | Paraesthesia: Events (10 mg): 4 | Psychiatric disorders, worst severity Mild: Events (10 mg): 6 | Psychiatric disorders, worst severity Moderate: Events (10 mg): 29 | Psychiatric disorders, worst severity Severe: Events (10 mg): 21 | Respiratory, thoracic and mediastinal disorders: Events (10 mg): 0 | Respiratory, thoracic and mediastinal disorders: N (%) (10 mg): 0 | Somatic hallucination, worst severity Mild: Events (10 mg): 1 | Somatic hallucination, worst severity Moderate: Events (10 mg): 7 | Somatic hallucination, worst severity Severe: Events (10 mg): 0 | Somatic hallucination, worst severity Severe: N (%) (10 mg): 0 | Somatic hallucination: Events (10 mg): 8 | Tension headache, worst severity Mild: Events (10 mg): 1 | Tension headache, worst severity Moderate: Events (10 mg): 2 | Tension headache, worst severity Severe: Events (10 mg): 0 | Tension headache, worst severity Severe: N (%) (10 mg): 0 | Tension headache: Events (10 mg): 3 | Tension headache: N (%) (10 mg): 3 (10.0) | Time perception altered, worst severity Mild: Events (10 mg): 1 | Time perception altered, worst severity Moderate: Events (10 mg): 1 | Time perception altered, worst severity Severe: Events (10 mg): 0 | Time perception altered, worst severity Severe: N (%) (10 mg): 0 | Time perception altered: Events (10 mg): 2 | Incidence of Illusion, Hallucination (visual), Mood altered, Headache, Fatigue and Euphoric mood compared to placebo (10 mg and 25 mg): higher | Majority of the severe TEAEs (system organ class) (10 mg and 25 mg arms): psychiatric disorders | Serious adverse events or adverse events that led to withdrawal (10 mg and 25 mg, 12-week study): no serious adverse events or adverse events that led to withdrawal | Reported 'Mood altered' events: Being less judgmental (10 mg psilocybin (n = 30)): 1 | Reported 'Mood altered' events: Calm (10 mg psilocybin (n = 30)): 0 | Reported 'Mood altered' events: Clarity of thought (10 mg psilocybin (n = 30)): 0 | Reported 'Mood altered' events: Contemplative state (10 mg psilocybin (n = 30)): 1 | Reported 'Mood altered' events: Feeling more moody/sensitive (10 mg psilocybin (n = 30)): 1 | Reported 'Mood altered' events: Feeling of adrenaline release (10 mg psilocybin (n = 30)): 0 | Reported 'Mood altered' events: Feeling rested (10 mg psilocybin (n = 30)): 1 | Reported 'Mood altered' events: Increased compassion (10 mg psilocybin (n = 30)): 0 | Reported 'Mood altered' events: Increased creativity (10 mg psilocybin (n = 30)): 0 | Reported 'Mood altered' events: Increased empathy (10 mg psilocybin (n = 30)): 2 | Reported 'Mood altered' events: Increased sense of connectedness (10 mg psilocybin (n = 30)): 0 | Reported 'Mood altered' events: Increased wit (10 mg psilocybin (n = 30)): 1 | Reported 'Mood altered' events: Introspection (10 mg psilocybin (n = 30)): 5 | Reported 'Mood altered' events: Laughter (10 mg psilocybin (n = 30)): 1 | Reported 'Mood altered' events: More socially upbeat (10 mg psilocybin (n = 30)): 0 | Reported 'Mood altered' events: Negative mood (10 mg psilocybin (n = 30)): 0 | Reported 'Mood altered' events: Reflections (10 mg psilocybin (n = 30)): 3 | Reported 'Mood altered' events: Saw themselves from a new perspective (10 mg psilocybin (n = 30)): 0 | Reported 'Mood altered' events: Sense of oneness (10 mg psilocybin (n = 30)): 4 | Reported 'Mood altered' events: Sense of openness (10 mg psilocybin (n = 30)): 1 | Reported 'Mood altered' events: Unusual appreciation of music (10 mg psilocybin (n = 30)): 0 | Any TEAE: % of subjects (10 mg, listed as Psilocybin): (96.7) % | AEs potentially related to study treatment, % of AEs in arm (25 mg): 95.9% | Affect lability, worst severity Mild: Events (25 mg): 2 | Affect lability, worst severity Moderate: Events (25 mg): 1 | Affect lability, worst severity Severe: Events (25 mg): 0 | Affect lability, worst severity Severe: N (%) (25 mg): 0 | Affect lability: Events (25 mg): 3 | Affect lability: N (%) (25 mg): 3 (10.0) | Any Selected TEAE: % of subjects (25 mg): (90.0) % | Any Selected TEAE: N (%) (25 mg): 27 | Any TEAE leading to death: Events (25 mg): 0 | Any TEAE leading to death: N (%) (25 mg): 0 | Any TEAE leading to study discontinuation: Events (25 mg): 0 | Any TEAE leading to study discontinuation: N (%) (25 mg): 0 | Any TEAE related to study treatment: % of subjects (25 mg): (96.7) % | Any TEAE related to study treatment: N (%) (25 mg): 29 | Any TEAE, worst severity Mild: Events (25 mg): 14 | Any TEAE, worst severity Mild: N (%) (25 mg): 3 (10.0) | Any TEAE, worst severity Moderate: Events (25 mg): 52 | Any TEAE, worst severity Severe: Events (25 mg): 29 | Any TEAE: % of subjects (25 mg): 96.7% | Any serious TEAE related to study treatment: Events (25 mg): 0 | Any serious TEAE related to study treatment: N (%) (25 mg): 0 | Any serious TEAE: Events (25 mg): 0 | Any serious TEAE: N (%) (25 mg): 0
